Source: ChEMBL document CHEMBL1157916, “Cytotoxicity against KB and NCI-H187 cell lines of modified flavonoids from Kaempferia parviflora” (Bioorg Med Chem Lett, 2010)

Legend:
Vero [1] = test: Cytotoxicity against african green monkey Vero cells by green fluorescent protein based assay; assay type: cell-based; conditions: Chlorocebus sabaeus
NCI-H187 [2] = test: Cytotoxicity against human NCI-H187 cells after 5 days by Resazurin Microplate Assay; assay type: functional, cell-based; conditions: NCI-H187, 120 h
KB [3] = test: Cytotoxicity against human KB cells after 3 days by Resazurin Microplate Assay; assay type: functional, cell-based; conditions: 72 h
Vero [4] = test: Selectivity ratio of IC50 for african green monkey Vero cells to IC50 for human NCI-H187 cells
NCI-H187 [5] = test: Selectivity ratio of IC50 of ellipticine to IC50 of compound for human NCI-H187 cells; assay type: functional
KB [6] = test: Cytotoxicity against human KB cells at >100 uM after 3 days by Resazurin Microplate Assay; assay type: functional, cell-based
Vero [7] = test: Cytotoxicity against african green monkey Vero cells at >100 uM by green fluorescent protein based assay; assay type: cell-based, Chlorocebus sabaeus
NCI-H187 [8] = test: Cytotoxicity against human NCI-H187 cells at >100 uM after 5 days by Resazurin Microplate Assay; assay type: functional, cell-based
Vero [9] = test: Selectivity ratio of IC50 for african green monkey Vero cells to IC50 for human KB cells

SMILES | IC50 (NCI-H187 [2]) [µM] | IC50 (KB [3]) [µM] | IC50 (KB [6]) | IC50 (NCI-H187 [8]) | other results
COc1cc(O)c2c(c1)OC(c1ccccc1)C(OC)/C2=N\O (stereo unspecified) | 0.23 | 23.9 |  |  | IC50 (Vero [1]): 41.2 µM; fold change (FC) (Vero [4]): 180; fold change (FC) (NCI-H187 [5]): 12
COc1cc(OC)c2c(c1)OC(c1ccccc1)C/C2=N\O (stereo unspecified) | 53.2 |  | Not Active |  | 
COc1ccc(C2C/C(=N\O)c3c(OC)cc(OC)cc3O2)cc1 (stereo unspecified) | 4.04 | 43.1 |  |  | IC50 (Vero [7]): Non-toxic
COc1ccc(C2CC(O)c3c(OC)cc(OC)cc3O2)cc1 (stereo unspecified) |  |  | Not Active | Not Active | 
COc1cc(O)c2c(=O)c(OC)c(-c3ccccc3)oc2c1 |  |  | Not Active | Not Active | IC50 (Vero [7]): Non-toxic
COc1cc(O)c2c(c1)OC(c1ccccc1)C/C2=N/O (stereo unspecified) | 0.014 | 0.26 |  |  | IC50 (Vero [1]): 2.67 µM; fold change (FC) (Vero [4]): 190; fold change (FC) (NCI-H187 [5]): 200; fold change (FC) (Vero [9]): 10
O/N=C1\CC(c2ccccc2)Oc2cc(O)cc(O)c21 (stereo unspecified) | 2.32 | 84.9 |  |  | IC50 (Vero [7]): Non-toxic
COc1cc(OC)c2c(c1)OC(c1ccccc1)CC2O (stereo unspecified) |  | 92.1 |  | Not Active | 
COc1cc(O)c(C(=O)CCc2ccccc2)c(O)c1 | 9.7 |  | Not Active |  | 
COc1cc(O)c(C(=O)CCc2ccccc2)c(OC)c1 |  |  | Not Active | Not Active | 
COc1ccc(CCC(=O)c2c(O)cc(OC)cc2OC)cc1 |  |  | Not Active | Not Active | 
COc1cc(O)c2c(c1)O[C@H](c1ccccc1)[C@H](OC)C2=O (mixture of isomers) | 98.2 | 30.4 |  |  | 
COc1cc(O)c2c(c1)O[C@H](c1ccccc1)[C@H](OC)[C@@H]2O (racemic) | 95.6 | 56.8 |  |  | 
COc1ccc(C2CC(=O)c3c(OC)cc(OC)cc3O2)cc1 (racemic) | 25.1 | 78.8 |  |  | 
COc1cc(OC)c2c(=O)cc(-c3ccccc3)oc2c1 [CHRYSIN DIMETHYL ETHER] |  |  | Not Active | Not Active | IC50 (Vero [7]): Non-toxic
COc1cc(OC)c2c(c1)OC(c1ccccc1)CC2=O (stereo unspecified) [DIMETHYLPINOCEMBRIN] | 33.1 | 39.9 |  |  | 
Cc1c2ccncc2c(C)c2c1[nH]c1ccccc12 [ELLIPTECINE] | 2.77 | 1.79 |  |  | IC50 (Vero [1]): 2.29 µM
O=C1C[C@@H](c2ccccc2)Oc2cc(O)cc(O)c21 [PINOCEMBRIN] | 95.5 | 99.2 |  |  | 
COc1cc(O)c2c(c1)O[C@H](c1ccccc1)CC2=O [PINOSTROBIN] |  |  | Not Active | Not Active | 
COc1cc(O)c2c(=O)cc(-c3ccccc3)oc2c1 [TECHTOCHRYSIN] |  |  | Not Active | Not Active | IC50 (Vero [7]): Non-toxic
COc1ccc(-c2cc(=O)c3c(OC)cc(OC)cc3o2)cc1 [TRIMETHYLAPIGENIN] |  |  | Not Active | Not Active | IC50 (Vero [7]): Non-toxic
